According to patent publication US20120148595A1, “GABA-LINKED ANTHRACYCLINE-LIPID CONJUGATES” (Luitpold Pharmaceuticals, Inc., priority 2009, published 2012):
Read-outs that look alike come from different tables or passages of the source.

What was measured:
[1] = test system: Madison 109 (M109) mouse lung carcinoma
Description: In all of the following in vivo experiments, the parent compound, doxorubicin, was injected intravenously (i.v.) in saline, while the fatty acid conjugates of doxorubicin were injected i.v. in 10% Cremophor® EL-P/10% ethanol/80% saline. The dosing schedule was Q3D×5.
T-C in this assay is defined as the time in days for the drug-treated tumors to double their mass three times subtracted […] to double their mass three times.

HT-29 human colon tumor = assay: nude mouse xenograft model of the HT-29 human colon tumor; type: in vivo; details: nude mouse
Description: (§1) The dosing schedule was Q3D×5.
In the nude mouse xenograft model of the HT-29 human colon tumor (Table 3), doxorubicin produced a T-C delay of 15.3 days at the MTD dose of 6 mg/kg, whereas P-367 (LOC-GABA-doxorubicin) produced a T-C delay of 32 days at 50 mg/kg and 22 at 25 mg/kg. Note that the activity of the lowest dose of LOC-GABA-doxorubicin is approximately equivalent to the highest, MTD of doxorubicin itself.

[2] = Toxicology: maximum tolerated dose, i.v. Q3D×5; details: mouse, in vivo, iv, i.v. 5 times on a once every three day schedule
From the text: as §1

[3] = cited from earlier work
[4] = test system: MDA-MB-435 human breast tumor; assay: nude mouse xenograft model of the MDA-MB-435 human breast tumor; type: in vivo; details: nude mouse
Description: as §1
In the nude mouse xenograft model of the MDA-MB-435 human breast tumor (Table 4), doxorubicin produced a T-C delay of 14 days at the approximate MTD dose of 6 mg/kg (1/10 drug-related deaths). In the same model, LOC-GABA-doxorubicin produced a T-C delay of 13 days at 50 mg/kg (6/10 drug-related deaths) and 1.5 days at 25 mg/kg (0 drug-related deaths).

M109-Lung Tumor = M109-Lung Tumor Model (Table 5, second study with OOC-GABA-doxorubicin); type: in vivo, mouse
From the text: as §1

COc1cccc2c1C(=O)c1c(O)c3c(c(O)c1C2=O)C[C@@](O)(C(=O)CO)C[C@@H]3O[C@H]1C[C@H](N)[C@H](O)[C@H](C)O1 [Doxorubicin, reference compound]
Complete Regressions ([1]; 1 mg/kg i.v. Q3D×5): 0 | Drug-related Deaths ([1]; 1 mg/kg i.v. Q3D×5): 0/5 | Tumor Growth Delay T-C ([1]; 1 mg/kg i.v. Q3D×5): 2.6 days | Complete Regressions ([1]; 2 mg/kg i.v. Q3D×5): 0 | Drug-related Deaths ([1]; 2 mg/kg i.v. Q3D×5): 0/5 | Tumor Growth Delay T-C ([1]; 2 mg/kg i.v. Q3D×5): 2.2 days | Complete Regressions ([1]; 4 mg/kg i.v. Q3D×5): 0 | Drug-related Deaths ([1]; 4 mg/kg i.v. Q3D×5): 0/5 | Tumor Growth Delay T-C ([1]; 4 mg/kg i.v. Q3D×5): 4.0 days | Complete Regressions ([1]; 6 mg/kg i.v. Q3D×5): 0 | Tumor Growth Delay T-C ([1]; 6 mg/kg i.v. Q3D×5, time for tumors to double their mass three times, treated vs vehicle): 5.7 days | complete responses ([1]; at any dose): no complete responses | Complete Regressions (HT-29 human colon tumor; 2 mg/kg i.v. Q3D×5): 0 | Days Delay T-C (HT-29 human colon tumor; 2 mg/kg i.v. Q3D×5): 2.2 days | Drug-related Deaths (HT-29 human colon tumor; 2 mg/kg i.v. Q3D×5): 0/10 | Complete Regressions (HT-29 human colon tumor; 4 mg/kg i.v. Q3D×5): 0 | Days Delay T-C (HT-29 human colon tumor; 4 mg/kg i.v. Q3D×5): 4.0 days | Drug-related Deaths (HT-29 human colon tumor; 4 mg/kg i.v. Q3D×5): 0/10 | Complete Regressions (HT-29 human colon tumor; 6 mg/kg i.v. Q3D×5): 0 | Days Delay T-C (HT-29 human colon tumor; 6 mg/kg i.v. Q3D×5): 5.7 days | Drug-related Deaths (HT-29 human colon tumor; 6 mg/kg i.v. Q3D×5): 0/10 | Days Delay T-C (HT-29 human colon tumor; 6 mg/kg i.v. Q3D×5, listed as doxorubicin): 15.3 days | MTD [2]: 6 mg/kg | MTD ([2]; nude): ~6 mg/kg | incidence of cardiomyopathy ([3]; cumulative dose 550 mg/m^2): 7% | incidence of cardiomyopathy ([3]; cumulative dose 600 mg/m^2): 15% | incidence of cardiomyopathy ([3]; cumulative dose 700 mg/m^2): 30% | Complete Regressions ([4]; 2 mg/kg i.v. Q3D×5): 0 | Days Delay T-C ([4]; 2 mg/kg i.v. Q3D×5): 0.0 days | Drug-related Deaths ([4]; 2 mg/kg i.v. Q3D×5): 0/5 | Complete Regressions ([4]; 4 mg/kg i.v. Q3D×5): 0 | Days Delay T-C ([4]; 4 mg/kg i.v. Q3D×5): 6.6 days | Drug-related Deaths ([4]; 4 mg/kg i.v. Q3D×5): 0/5 | Complete Regressions ([4]; 6 mg/kg i.v. Q3D×5): 0 | Days Delay T-C ([4]; 6 mg/kg i.v. Q3D×5): 14 days | Drug-related Deaths ([4]; 6 mg/kg i.v. Q3D×5): 1/10 | Complete Regressions (M109-Lung Tumor; 2 mg/kg i.v. Q3D×5): 0 | Days Delay T-C (M109-Lung Tumor; 2 mg/kg i.v. Q3D×5): 0.0 days | Drug-related Deaths (M109-Lung Tumor; 2 mg/kg i.v. Q3D×5): 0/5 | Complete Regressions (M109-Lung Tumor; 4 mg/kg i.v. Q3D×5): 0 | Days Delay T-C (M109-Lung Tumor; 4 mg/kg i.v. Q3D×5): 1.4 days | Drug-related Deaths (M109-Lung Tumor; 4 mg/kg i.v. Q3D×5): 0/5 | Complete Regressions (M109-Lung Tumor; 6 mg/kg i.v. Q3D×5): 0 | Days Delay T-C (M109-Lung Tumor; 6 mg/kg i.v. Q3D×5): 0.9 days | Drug-related Deaths (M109-Lung Tumor; 6 mg/kg i.v. Q3D×5): 0/5 | Complete Regressions (M109-Lung Tumor; 8 mg/kg i.v. Q3D×5): 0 | Days Delay T-C (M109-Lung Tumor; 8 mg/kg i.v. Q3D×5): 4.6 days | Drug-related Deaths (M109-Lung Tumor; 8 mg/kg i.v. Q3D×5): 0/5
